Data: patent US20230146455A1, “TREATMENT OF INFLAMMATORY DISEASES WITH PEPTIDES AND PHARMACEUTICAL COMPOSITIONS” (Yuyu Pharma, Inc., priority 2020, published 2023)
“And” between values parts separate entries of the source, which are not always exact repeats. Equal values may be shown once. Where a SMILES comes first, the peptide text is derived from it. [ ]: non-standard residue; d: D form. Hyp = O=C(O)[C@@H]1C[C@@H](O)CN1

Test system: Fas Ligand
Test: Example 9 Luminex, LPS hPBMCs: Fas Ligand
Format: cell-based, human
Details: for Fas Ligand Concentration / Fas Ligand conc/live cell / MFI, bead Fas Ligand: single replicates
Experimental: Treatment Human PBMCs were pretreated with YY-101, YDE-011 and YDE-043 or reference compound; Xiidra® at various concentration (ranging from 1 nM to 100 uM) for 2 h before stimulation. An equal volume of 0.5% DMSO was used as a vehicle control. Then, the cells were treated with LPS at 5 ug/ml. The supernatants from treated cells were harvested at 24 h and placed in a 96 well for Luminex cytokine & chemokine profiling using a Luminex 200 multiplex assay (Luminex; R&D system, USA).
The main study arm with triplicate wells per group in a 24-well plate: • 1. Blank • 2. PBMC: 0.5% DMSO • 3. PBMC+LPS (5 ug/ml) • 4. PBMC+YY-101 100 uM • 5. PBMC+YY-101 10 uM • 6. PBMC+YY-101 1 uM • 7. PBMC+YY-101 0.1 uM • 8. PBMC+YY-101 0.01 uM • 9. PBMC+LPS (5 ug/ml)+Xiidra®100 uM • 10. PBMC+LPS (5 ug/ml)+Xiidra® 10 uM • 11. PBMC+LPS (5 ug/ml)+Xiidra® 1 uM • 12. PBMC+LPS (5 ug/ml)+Xiidra®0.1 uM • 13. PBMC+LPS (5 ug/ml)+Xiidra®0.01 uM • 14. PBMC+LPS (5 ug/ml)+Xiidra®0.001 uM • 15. PBMC+LPS (5 ug/ml)+YY-101 100 uM • 16. PBMC+LPS (5 ug/ml)+YY-101 10 uM • 17. PBMC+LPS (5 ug/ml)+YY-101 1 uM • 18. PBMC+LPS (5 ug/ml)+YY-101 0.1 uM • 19. PBMC+LPS (5 ug/ml)+YY-101 0.01 uM • 20. PBMC+LPS (5 ug/ml)+YY-101 0.001 uM • 21. PBMC+LPS (5 ug/ml)+YDE-011 100 uM • 22. PBMC+LPS (5 ug/ml)+YDE-011 10 uM • 23. PBMC+LPS (5 ug/ml)+YDE-011 1 uM • 24. PBMC+LPS (5 ug/ml)+YDE-011 0.1 uM • 25. PBMC+LPS (5 ug/ml)+YDE-011 0.01 uM • 26. PBMC+LPS (5 ug/ml)+YDE-011 0.001 uM • 27. PBMC+LPS (5 ug/ml)+YDE-043 100 uM • 28. PBMC+LPS (5 ug/ml)+YDE-043 10 uM • 29. PBMC+LPS (5 ug/ml)+YDE-043 1 uM • 30. PBMC+LPS (5 ug/ml)+YDE-043 0.1 uM • 31. PBMC+LPS (5 ug/ml)+YDE-043 0.01 uM • 32. PBMC+LPS (5 ug/ml)+YDE-043 0.001 uM
Multiplex assay was used to measure 30 cytokines and chemokines. The 1:2, 1:10 and 1:200 diluted cell supernatant and serial dilution of the standard were dispensed into a 96 well plate at 50 ul/well. Then, the pre-mixed cocktail of antibody-coated magnetic beads was dispensed at 50 ul/well and incubated at room temperature for 2 h in a horizontal orbital microplate shaker at 800±500 rpm. The beads were washed using a magnetic device to prevent loss. The biotin-antibody was dispensed in 50 ul of each well and incubated at room temperature for 1 h in a shaker at 800±500 rpm. After washing, streptavidin-PE was added at 50 ul/well and incubated at room temperature for 30 min in a shaker under the same conditions. Finally, after washing, wash buffer (100 ul/well) was added to the plate and incubated in a shaker for 2 min. The Luminex™ 200 setting were set according to the manufacturer's protocol. The data was calculated with a standard five-parameter logistic nonlinear regression analysis of the data (xPonent software 4.2, USA). The levels of cytokine/chemokine are normalized to the live cell counts (1×10^5 cells/mL) and presented as concentrations per mL (pg/mL or ng/mL).

[1] = PBMC + LPS(5 ug/ml) + test article 0.001 uM
[2] = PBMC + LPS(5 ug/ml) + test article 0.01 uM
[3] = PBMC + LPS(5 ug/ml) + test article 0.1 uM
[4] = PBMC + LPS(5 ug/ml) + test article 1 uM
[5] = PBMC + LPS(5 ug/ml) + test article 10 uM
[6] = PBMC + LPS(5 ug/ml) + test article 100 uM

| SMILES | Fas Ligand Concentration, Mean [1] | Fas Ligand conc/live cell, Mean [1] | MFI, bead Fas Ligand, Mean [1] | Fas Ligand Concentration [1] | Fas Ligand conc/live cell [1] | MFI, bead Fas Ligand [1] | Fas Ligand Concentration, Mean [2] | Fas Ligand conc/live cell, Mean [2] | MFI, bead Fas Ligand, Mean [2] | Fas Ligand Concentration [2] | Fas Ligand conc/live cell [2] | MFI, bead Fas Ligand [2] | Fas Ligand Concentration, Mean [3] | Fas Ligand conc/live cell, Mean [3] | MFI, bead Fas Ligand, Mean [3] | Fas Ligand Concentration [3] | Fas Ligand conc/live cell [3] | MFI, bead Fas Ligand [3] | Fas Ligand Concentration, Mean [4] | Fas Ligand conc/live cell, Mean [4] | also measured |
| --- | --- | --- | --- | --- | --- | --- | --- | --- | --- | --- | --- | --- | --- | --- | --- | --- | --- | --- | --- | --- | --- |
| CC(C)C[C@H](NC(=O)CNC(=O)[C@H](CC(C)C)NC(=O)[C@H](CCC(N)=O)NC(=O)CNC(=O)[C@@H]1C[C@@H](O)CN1)C(=O)N[C@@H](C)C(=O)NCC(=O)N1CCC[C@H]1C(=O)N[C@@H](CCCCN)C(=O)O [YDE-011] (H-[Hyp]GQLGLAGPK-OH) | 16.8 pg/mL | 3.2 pg/10^5 | 22.7 | 15.7 pg/mL and 18.4 pg/mL and 16.4 pg/mL | 3.5 pg/10^5 and 3.2 pg/10^5 and 2.8 pg/10^5 | 21.0 and 25.0 and 22.0 | 15.5 pg/mL | 2.7 pg/10^5 | 20.7 | 17.1 pg/mL and 13.7 pg/mL and 15.7 pg/mL | 2.7 pg/10^5 and 2.2 pg/10^5 and 3.1 pg/10^5 | 23.0 and 18.0 and 21.0 | 17.3 pg/mL | 3.0 pg/10^5 | 23.3 | 19.1 pg/mL and 17.7 pg/mL and 15.0 pg/mL | 2.9 pg/10^5 and 3.5 pg/10^5 and 2.6 pg/10^5 | 26.0 and 24.0 and 20.0 | 15.9 pg/mL | 3.2 pg/10^5 | MFI, bead Fas Ligand, Mean [4]: 21.3; Fas Ligand Concentration [4]: 17.4 pg/mL and 15.4 pg/mL and 15.0 pg/mL; Fas Ligand conc/live cell [4]: 3.2 pg/10^5 (2×) and 3.1 pg/10^5; MFI, bead Fas Ligand [4]: 23.5 and 20.5 and 20.0; Fas Ligand Concentration, Mean [5]: 17.3 pg/mL; Fas Ligand conc/live cell, Mean [5]: 3.3 pg/10^5; MFI, bead Fas Ligand, Mean [5]: 23.3; Fas Ligand Concentration [5]: 19.7 pg/mL and 17.7 pg/mL and 14.4 pg/mL; Fas Ligand conc/live cell [5]: 3.7 pg/10^5 and 3.1 pg/10^5 (2×); MFI, bead Fas Ligand [5]: 27.0 and 24.0 and 19.0; Fas Ligand Concentration, Mean [6]: 13.3 pg/mL; Fas Ligand conc/live cell, Mean [6]: 2.2 pg/10^5; MFI, bead Fas Ligand, Mean [6]: 17.3; Fas Ligand Concentration [6]: 11.7 pg/mL and 13.1 pg/mL and 15.0 pg/mL; Fas Ligand conc/live cell [6]: 1.9 pg/10^5 and 2.1 pg/10^5 and 2.5 pg/10^5; MFI, bead Fas Ligand [6]: 15.0 and 17.0 and 20.0 |
| CC(C)C[C@H](NC(=O)[C@H](CCC(N)=O)NC(=O)CNC(=O)[C@@H]1C[C@@H](O)CN1)C(=O)NCC(=O)O [YDE-043] (H-[Hyp]GQLG-OH; N-terminus and C-terminus assumed) | 16.8 pg/mL | 3.4 pg/10^5 | 22.7 | 17.1 pg/mL and 20.4 pg/mL and 13.1 pg/mL | 3.9 pg/10^5 and 3.4 pg/10^5 and 2.8 pg/10^5 | 23.0 and 28.0 and 17.0 | 21.9 pg/mL | 4.3 pg/10^5 | 30.2 | 19.1 pg/mL and 15.7 pg/mL and 31.0 pg/mL | 4.2 pg/10^5 and 2.4 pg/10^5 and 6.2 pg/10^5 | 26.0 and 21.0 and 43.5 | 13.2 pg/mL | 2.5 pg/10^5 | 17.2 | 14.4 pg/mL and 12.7 pg/mL and 12.4 pg/mL | 2.9 pg/10^5 and 2.3 pg/10^5 and 2.2 pg/10^5 | 19.0 and 16.5 and 16.0 | 16.6 pg/mL | 3.2 pg/10^5 | MFI, bead Fas Ligand, Mean [4]: 22.3; Fas Ligand Concentration [4]: 13.7 pg/mL and 15.7 pg/mL and 20.4 pg/mL; Fas Ligand conc/live cell [4]: 2.4 pg/10^5 and 3.3 pg/10^5 and 3.9 pg/10^5; MFI, bead Fas Ligand [4]: 18.0 and 21.0 and 28.0; Fas Ligand Concentration, Mean [5]: 16.4 pg/mL; Fas Ligand conc/live cell, Mean [5]: 3.0 pg/10^5; MFI, bead Fas Ligand, Mean [5]: 22.0; Fas Ligand Concentration [5]: 16.4 pg/mL and 17.1 pg/mL and 15.7 pg/mL; Fas Ligand conc/live cell [5]: 3.2 pg/10^5 (2×) and 2.8 pg/10^5; MFI, bead Fas Ligand [5]: 22.0 and 23.0 and 21.0; Fas Ligand Concentration, Mean [6]: 13.2 pg/mL; Fas Ligand conc/live cell, Mean [6]: 2.1 pg/10^5; MFI, bead Fas Ligand, Mean [6]: 17.3; Fas Ligand Concentration [6]: 15.0 pg/mL and 11.4 pg/mL; Fas Ligand conc/live cell [6]: 2.4 pg/10^5 and 1.8 pg/10^5; MFI, bead Fas Ligand [6]: 20.0 and 14.5 |
